Measurements: the supplement of paper PMC11281043
± gives the standard deviation of the averaged measurements.

Experiments:
Danio rerio embryo/larva [1] = assay: BMC general abnormality; higher = less potent; details: exposure: 6-8 hpf to 5 dpf, scored at 6 dpf
Protocol: (§1)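 Zebrafish embryos (with chorion) were exposed from 6-8 hpf to each PFAS (8-point half-log series, top concentration up to 100 uM, 0.4% DMSO, sealed plates, 26 C; n = 6 embryos per concentration), rinsed at 5 dpf and scored at 6 dpf by two blinded observers for mortality, hatching and malformations. Endpoint scores are the % of living larvae affected (dead larvae excluded; […]). Curves were fitted with tcpl (cutoff 16%), and the BMC is the concentration at a benchmark response of 21.6%.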

Danio rerio embryo/larva [2] = assay: max % larvae with pigmentation defects across tested concentrations; higher = more toxic; details: exposure: 6-8 hpf to 5 dpf, scored at 6 dpf
Danio rerio embryo/larva [3] = assay: max % larvae with edema across tested concentrations; higher = more toxic; extreme values may be limits of the assay; details: exposure: 6-8 hpf to 5 dpf, scored at 6 dpf
Danio rerio embryo/larva [4] = assay: max % larvae with tail defects across tested concentrations; higher = more toxic; extreme values may be limits of the assay; details: exposure: 6-8 hpf to 5 dpf, scored at 6 dpf
Danio rerio embryo/larva [5] = assay: max % larvae with blood pooling across tested concentrations; higher = more toxic; extreme values may be limits of the assay; details: exposure: 6-8 hpf to 5 dpf, scored at 6 dpf
Danio rerio embryo/larva [6] = assay: max % larvae generally abnormal across tested concentrations; higher = more toxic; extreme values may be limits of the assay; details: exposure: 6-8 hpf to 5 dpf, scored at 6 dpf
Danio rerio embryo/larva [7] = assay: max % larvae with spinal defects across tested concentrations; higher = more toxic; extreme values may be limits of the assay; details: exposure: 6-8 hpf to 5 dpf, scored at 6 dpf
Danio rerio embryo/larva [8] = assay: max % larvae with abnormal position across tested concentrations; higher = more toxic; extreme values may be limits of the assay; details: exposure: 6-8 hpf to 5 dpf, scored at 6 dpf
Danio rerio embryo/larva [9] = assay: max % larvae with craniofacial defects across tested concentrations; higher = more toxic; extreme values may be limits of the assay; details: exposure: 6-8 hpf to 5 dpf, scored at 6 dpf
Danio rerio embryo/larva [10] = assay: max % larvae with uninflated swim bladder across tested concentrations; higher = more toxic; extreme values may be limits of the assay; details: exposure: 6-8 hpf to 5 dpf, scored at 6 dpf
Danio rerio embryo/larva [11] = assay: BMC edema; higher = less potent; details: max tested concentration (log10 uM): 2; exposure: 6-8 hpf to 5 dpf, scored at 6 dpf
Protocol: as §1

Danio rerio embryo/larva [12] = assay: BMC swim bladder non-inflation; higher = less potent; details: max tested concentration (log10 uM): 2; exposure: 6-8 hpf to 5 dpf, scored at 6 dpf
Protocol: as §1

Danio rerio embryo/larva [13] = assay: BMC any abnormality; max tested concentration (log10 uM): 2; higher = less potent; details: exposure: 6-8 hpf to 5 dpf, scored at 6 dpf
Protocol: as §1

Danio rerio embryo/larva [14] = assay: max % larvae unhatched across tested concentrations; max tested concentration (log10 uM): 2; higher = more toxic; details: exposure: 6-8 hpf to 5 dpf, scored at 6 dpf
Danio rerio embryo/larva [15] = assay: max % larvae with any abnormality across tested concentrations; max tested concentration (log10 uM): 2; higher = more toxic; extreme values may be limits of the assay; details: exposure: 6-8 hpf to 5 dpf, scored at 6 dpf
Danio rerio embryo/larva [16] = assay: max % larvae dead across tested concentrations; max tested concentration (log10 uM): 2; higher = more toxic; extreme values may be limits of the assay; details: exposure: 6-8 hpf to 5 dpf, scored at 6 dpf

| Structure (SMILES) | BMC general abnormality (Danio rerio embryo/larva [1]) | max % larvae (Danio rerio embryo/larva [2]) | max % larvae (Danio rerio embryo/larva [3]) | max % larvae (Danio rerio embryo/larva [4]) | max % larvae (Danio rerio embryo/larva [5]) | max % larvae generally abnormal across tested concentrations (Danio rerio embryo/larva [6]) | max % larvae (Danio rerio embryo/larva [7]) | max % larvae (Danio rerio embryo/larva [8]) | max % larvae (Danio rerio embryo/larva [9]) | max % larvae (Danio rerio embryo/larva [10]) | BMC edema (Danio rerio embryo/larva [11]) | BMC swim bladder non-inflation (Danio rerio embryo/larva [12]) | BMC any abnormality (Danio rerio embryo/larva [13]) | max % larvae unhatched across tested concentrations (Danio rerio embryo/larva [14]) | max % larvae (Danio rerio embryo/larva [15]) | max % larvae dead across tested concentrations (Danio rerio embryo/larva [16]) |
| --- | --- | --- | --- | --- | --- | --- | --- | --- | --- | --- | --- | --- | --- | --- | --- | --- |
| FC(F)(I)C(F)(F)C(F)(F)C(F)(F)C(F)(F)C(F)(F)I [1,6-Diiodoperfluorohexane] (max tested concentration (log10 uM): 2) | 4.24 ± 2.6 µM | 10 ± 14% | 67.5 ± 3.5% | 7.5 ± 11% | 56.7 ± 33% | 95 ± 7.1% | 33.3 ± 18% | 54.6 ± 0.59% | 90% | 100% |  |  |  |  |  |  |
| FC(F)(F)C(F)(F)C(F)(F)C(F)(F)C(F)(F)CCI [1-Iodo-1H,1H,2H,2H-perfluoroheptane] |  |  |  |  |  |  |  |  |  |  | 31.5 µM | 31.5 µM | 29.3 µM | 0% | 72.9% |  |
| FC(F)(F)C(F)(F)C(F)(F)C(F)(F)C(F)(F)CCI [1-Iodo-1H,1H,2H,2H-perfluoroheptane] (max tested concentration (log10 uM): 2) | 31.4 µM | 0% | 35.7% | 7.14% | 0% | 42.9% | 4.17% | 10.7% | 14.3% | 35.7% |  |  |  |  |  |  |
| FC(F)(F)C(F)(F)C(F)(F)C(F)(F)C(F)(F)C(F)(F)C(F)(F)I [1-Iodopentadecafluoroheptane] |  |  |  |  |  |  |  |  |  |  |  | 56.7 µM | 10.9 µM | 0% | 83.3% | 16.7% |
| C=C(C)C(=O)OCC(F)(F)C(F)(F)C(F)(F)C(F)F [1H,1H,5H-Perfluoropentyl methacrylate] |  |  |  |  |  |  |  |  |  |  |  |  | 27.9 µM | 0% | 66.7% | 66.7% |
| C=CC(=O)OCC(F)(F)C(F)(F)C(F)(F)C(F)(F)COC(=O)C=C [1H,1H,6H,6H-Perfluorohexane-1,6-diol diacrylate] (max tested concentration (log10 uM): 1) | 7.57 µM | 0% | 25% | 0% | 0% | 25% | 0% | 4.17% | 8.33% | 50% |  |  |  |  |  |  |
| Cc1ccc(S(=O)(=O)OCC(F)(F)C(F)(F)C(F)(F)C(F)(F)C(F)(F)C(F)F)cc1 [1H,1H,7H-Perfluoroheptyl 4-methylbenzenesulfonate] |  |  |  |  |  |  |  |  |  |  |  | 8.97 µM | 20.3 µM | 0% | 75% | 0% |
| OCC(F)(F)C(F)(F)C(F)(F)C(F)(F)C(F)(F)C(F)(F)CO [1H,1H,8H,8H-Perfluorooctane-1,8-diol] (max tested concentration (log10 uM): 2) | 50.1 µM | 0% | 50% | 2.08% | 0% | 52.1% | 8.33% | 8.33% | 25% | 87.5% |  |  |  |  |  |  |
| OCC(F)(F)C(F)(F)C(F)(F)C(F)(F)C(F)(F)C(F)(F)C(F)(F)C(F)(F)CO [1H,1H,10H,10H-Perfluorodecane-1,10-diol] (max tested concentration (log10 uM): 1) | 3.79 µM | 0% | 66.7% | 8.33% | 33.3% | 75% | 4.17% | 4.17% | 83.3% | 83.3% |  |  |  |  |  |  |
| NCC(F)(F)C(F)(F)C(F)(F)C(F)(F)C(F)(F)C(F)(F)F [1H,1H-Perfluoroheptylamine] |  |  |  |  |  |  |  |  |  |  | 79.2 µM |  | 79.2 µM | 0% | 33.3% | 0% |
| NCC(F)(F)C(F)(F)C(F)(F)C(F)(F)C(F)(F)C(F)(F)F [1H,1H-Perfluoroheptylamine] (max tested concentration (log10 uM): 2) | 79.2 µM | 0% | 33.3% | 0% | 0% | 33.3% | 0% |  | 0% | 0% |  |  |  |  |  |  |
| C=CC(=O)OCCC(F)(F)C(F)(F)C(F)(F)C(F)(F)F [2-(Perfluorobutyl)ethyl acrylate] |  |  |  |  |  |  |  |  |  |  |  | 75.7 µM | 26.3 µM | 0% | 100% |  |
| C=CC(=O)OCCC(F)(F)C(F)(F)C(F)(F)C(F)(F)F [2-(Perfluorobutyl)ethyl acrylate] (max tested concentration (log10 uM): 2) | 74.8 µM | 0% | 0% | 0% | 0% | 50% | 0% | 0% | 0% | 100% |  |  |  |  |  |  |
| OCCC(F)(F)C(F)(F)C(F)(F)C(F)(F)C(F)(F)C(F)(F)F [2-(Perfluorohexyl)ethanol] (max tested concentration (log10 uM): 2) | 3.37 µM | 0% | 79.5% | 13.6% | 0% | 79.5% | 6.82% | 11.4% | 68.2% | 81.8% |  |  |  |  |  |  |
| O=P(O)(O)CCC(F)(F)C(F)(F)C(F)(F)C(F)(F)C(F)(F)C(F)(F)F [2-(Perfluorohexyl)ethylphosphonic acid] |  |  |  |  |  |  |  |  |  |  | 22.5 µM |  | 21.9 µM | 0% | 95.8% |  |
